In patent publication US11565998B2, “Succinate prodrug, compositions containing the succinate prodrug and uses thereof” (ABLIVA AB, priority 2019, dated 2023):

Test system: rotenone-mediated inhibition of complex 1
Assay: Pig model of rotenone induced mitochondrial complex 1 dysfunction
Assay type: in vivo, Yorkshire landrace hybrid pigs
Settings: rotenone infusion 7.1 mg/hr for 1.5 hours, below quantification
Procedure: To study the effect of rotenone-mediated inhibition of complex 1, Yorkshire landrace hybrid pigs were anaesthetised and implanted with venous catheters for simultaneous infusion of rotenone and Compound 1 or vehicle (PBS). Rotenone (7.1 mg/hr) was infused during 1.5 hours. Compound 1 was infused at a constant rate of 2 mg/kg/min over a period of 2.5 hours. The control animal was infused with PBS. Blood samples were taken with 30 min intervals and plasma was separated by centrifugation. Microdialysates were collected by inserting a microdialysis probe into the striatum of the brain and analysed for lactate using an ISCUS instrument (MDialysis). At the end of infusion, the animal was euthanised and terminal blood and organ samples were collected. Plasma and tissue samples were stored frozen and later analysed for succinate in an LC/MS method using a Thermo Vanquish UPLC+Thermo Quantis triple quadrupole MS instrument, an Acquity UPLC HSS C18 (100×2.1 mm, 1.8 μm) column with guard filter and gradient elution; A=0.1% Formic acid, B=Acetonitrile. [13C]-labelled succinate was used as internal standard. Lactate data were expressed as percentage of the baseline value obtained before start of rotenone infusion.

## C=C(C)[C@H]1Cc2c(ccc3c2O[C@@H]2COc4cc(OC)c(OC)cc4[C@@H]2C3=O)O1 [Rotenone]
  tissue concentrations of succinate: < 2 µM
